Laboratory results taken from patent US20160361309A1, “METHODS OF TREATING CANCER PATIENTS RESPONDING TO EZH2 INHIBITOR GSK126” (GLAXOSMITHKLINE INTELLECTUAL PROPERTY (NO.2) LIMITED, priority 2014, published 2016).

Experiments:
NALM-6 cells [1] = assay: Caspase 3/7 assay (Caspase-Glo 3/7), NALM-6; type: cell-based, human; conditions: NALM-6 (EZH2 WT), out to 6 days
Text: (§1) FIG. 5. […] Temporal kinetics of GSK126-induced growth inhibition (A and C) and caspase 3/7 activation (B and D) in NALM-6 (A and B) and SUP-B8 (C and D) over a 6 day time course using Cell Titer-Glo or Caspase-Glo 3/7 (Promega), respectively.
(§2) For detection of caspase-3/7 activity, Caspase-Glo 3/7 (Promega) was utilized according to the manufacturer's directions. Values were normalized to CellTiter Glo (Promega) levels at each time point and expressed as a percentage of vehicle treated control.

[2] = tested on: Y641 and A677 EZH2 mutant DLBCL cell lines; conditions: many Y641 and A677 EZH2 mutant DLBCL cell lines; previously shown; cited from earlier work
[3] = tested on: EZH2 WT cell lines (B cell ALL panel); assay: 6-day cell proliferation assay (CellTiter-Glo), EZH2 WT B cell ALL cell lines; type: cell-based; conditions: Homo sapiens, 144 h, 6 days, range over cell lines, read-out: growth IC50 values
Experimental: (§3) FIG. 4. A687V EZH2 mutant ALL is highly dependent on EZH2 activity. A, Sensitivity of ALL cell lines to EZH2 inhibition with GSK126. Cells were treated with a 20-point 2-fold dilution series of GSK126 (range 36 μM-70 pM) for 6 days and cell growth was measured using Cell Titer-Glo (Promega). Data are represented as the concentration of GSK126 required to inhibit 50% of growth (growth IC50). B, Western blot analysis of H3K27me3, H3K27me2, H3K27me1, and total histone H3 following treatment of NALM-6 or SUP-B8 cell lines with varying concentrations of GSK126 for 72 hours.
(§4) Cells were evaluated for sensitivity to GSK126 in a 6-day proliferation assay as described previously (McCabe et al., 2012b). Briefly, cells were seeded into 384 well plates at a density that permitted proliferation for 6 days. Cells were then treated in duplicate with a 20-point 2-fold dilution series of GSK126 or 0.147% DMSO. After incubation with compound for 6 days, cell proliferation was evaluated using CellTiter-Glo (Promega) according to the manufacturer's specifications. Data were fit with a 4-parameter equation to generate a concentration response curve and to determine the concentration of GSK126 required to inhibit 50% of growth (gIC50).

SUP-B8 cells [4] = assay: Caspase 3/7 assay (Caspase-Glo 3/7), SUP-B8; type: cell-based, human; conditions: SUP-B8, beginning on day 5
Text: as §1, §2

SUP-B8 cells [5] = assay: Gene expression profiling (Affymetrix U133 Plus 2.0), SUP-B8; type: cell-based, human; conditions: SUP-B8, 500 nM GSK126, 72 hours
Experimental: (§5) FIG. 6. Activation of gene expression in A687V EZH2, but not WT EZH2, cells. A, Gene expression profiling of SUP-B8 and NALM-6 cells treated for 72 hours with 0.1% DMSO or 500 nM GSK126. […] Green, lower expression. Red, higher expression.
(§6) SUP-B8 and NALM-6 cells (2×10^5/well) were seeded into six-well tissue culture plates 24 hours before treatment with 0.1% DMSO or 500 nM GSK126 for 72 hours. Cells were collected into Trizol reagent (Invitrogen) and total RNA was isolated via phenol:chloroform extraction and the RNeasy kit (Qiagen) according to the manufacturer's instructions. Total RNA was labeled and hybridized to Affymetrix Human Genome U133 Plus 2.0 oligonucleotide microarrays arrays according to the manufacturer's instructions (Affymetrix, Santa Clara, Calif., USA). CEL files were processed and differentially expressed probe sets were determined as described previously (McCabe et al., 2012b). Briefly, significant probe sets were identified after filtering for detection, an average fold-change >2 or <-2, and p-values adjusted for multiple testing correction by FDR (Benjamini Hochberg)<0.1.

NALM-6 cells [6] = assay: Gene expression profiling (Affymetrix U133 Plus 2.0), NALM-6; type: cell-based, human; conditions: NALM-6, 500 nM GSK126, 72 hours
Experimental: as §5, §6

H3K27me3 in SUP-B8 cells = assay: Western blot analysis of H3K27 methylation after GSK126 treatment; type: cell-based, human; conditions: SUP-B8 compared with the most sensitive EZH2 WT cell line NALM-6, 72 hours
Experimental: as §3
Cell lysate preparation and western blotting were performed as previously described (McCabe et al., 2012a). Antibodies utilized included: EZH2 (BD Transduction Labs), histone H3 (Abcam), H3K27me1 (ActiveMotif), H3K27me2 (Cell Signaling Technology), H3K27me3 (Cell Signaling Technology), EED (Santa Cruz), SUZ12 (Cell Signaling Technology), or Actin (Sigma). Histone methylation antibody specificity was previously confirmed using full-length recombinant methylated histones harboring mono-, di-, or tri-methylation at H3K4, H3K9, H3K27, H3K36, and H3K79 (McCabe et al., 2012a).

[7] = tested on: A687V EZH2 mutant SUP-B8 cell line; assay: 6-day cell proliferation assay (CellTiter-Glo), SUP-B8; type: cell-based, human
Experimental: as §3, §1
The SUP-B8 acute lymphoblastic leukemia cell line which harbors a heterozygous A687V EZH2 mutation was kindly provided by Dr. Ronald Levy (Stanford University) and was maintained in RPMI-1640 media (MediaTech) supplemented with 10% fetal bovine serum (FBS) (Sigma-Aldrich). All other cell lines were obtained from either ATCC or DSMZ and maintained in the recommended cell culture media.
as §4

NALM-6 cells [8] = assay: Growth inhibition time course (CellTiter-Glo), NALM-6; type: cell-based, human; conditions: NALM-6 (EZH2 WT), out to 6 days
Experimental: as §1, §4

For `CC[C@H](C)n1cc(C)c2c(C(=O)NCc3c(C)cc(C)[nH]c3=O)cc(-c3ccc(N4CCNCC4)nc3)cc21` [GSK126], the “activation of caspases 3 or 7” value (NALM-6 cells [1]) is given as “no activation of caspases 3 or 7”, the inhibition of proliferation [2] is given as “effectively inhibit the proliferation” and the IC50 [3] is given as 2.5 to 7.8 µM. The “caspase 3/7 activity” value (SUP-B8 cells [4]) was “increased in a dose-dependent fashion”, the up-regulated probes (SUP-B8 cells [5]) was 643 and the down-regulated probes (NALM-6 cells [6]) was 10. For the same compound, the up-regulated probes (NALM-6 cells [6]) was 35, the “demethylation of H3K27me3” value (H3K27me3 in SUP-B8 cells) was “comparable, or slightly reduced, demethylation of H3K27me3” and the IC50 ([7]; Homo sapiens, 144 h, SUP-B8 (heterozygous A687V EZH2), 6 days, CellTiter-Glo, read-out: dose required to inhibit 50% of cell proliferation (growth IC50)) was 0.441 µM. The “growth inhibition over 6 day time course” value ([7]; SUP-B8, after 4 days of treatment, maximal on day 6) was “dose-dependent growth inhibition”, the “doses at which cell number losses were evident” value ([7]; SUP-B8, day 6) was “above 100 nM” and the “growth inhibition over 6 day time course” value (NALM-6 cells [8]) was “little growth inhibition”.
